These results are taken from patent EP0974351A2, “Medicament for preventing and treating gastrointestinal damage” (JOUVEINAL, priority 1998, dated 2000).

The subject of one experiment is Audiogenic Convulsions. Put plainly: Audiogenic seizures after ethanol withdrawal in mice. Type of experiment: in vivo, Male albino mice of the outbred TO strain. The note with it: for Percentage of Group Showing Clonic Convulsions: Ethanol Diet, 8 hours from ethanol withdrawal, ethanol/saline 80. As for the experimental part: Male albino mice of the outbred TO strain (Bantin and Kingman, UK) were used in all studies. The weight ranged from 25 to 35 g, with no more than a 5 g range in any single experiment. The mice were housed, eight per cage, at 21°C ± 1°C, with 55 ± 10% relative humidity, and a 12-hour light/dark cycle with the light phase between 09:00 to 21:00. All mice received ad libitum access to tap water and standard laboratory chow (RM-1, Special Diet Services, UK) until their use in experiments or until their diet was replaced with a liquid diet.
Ethanol was administered in a liquid diet schedule. All mice received control diet for an initial 2-day period. Ethanol treated mice then received a diet containing 3.5% (v/v) ethanol/water for 2 days, followed by a diet containing 7% ethanol for a further 5 days. The average intake was 22 to 30 g/kg/day. Control groups were pair-fed a control diet, balanced isocalorifically to match the ethanol containing diet. There were no differences in the weights of the ethanol-treated and control mice at the end of the treatment periods. When mice were withdrawn from the ethanol (between 07:00 AM and 09:00 AM), they were provided with tap water until their use in experiments.
Gabapentin was dissolved in saline, the solution being made freshly each testing day. Intraperitoneal (i.p.) injections of either gabapentin, 10 mL/kg, or saline, were given immediately on withdrawal from the ethanol treatment, in the studies on the handling responses and 2 hours prior to measurement of audiogenic seizures. In the experiments using the elevated plus maze, gabapentin or saline was injected i.p. at 8 hours after the removal of the ethanol diet, and the mice placed on the plus maze 60 minutes after the injections. In the studies on motor co-ordination (ataxia) and on locomotor activity, gabapentin or saline was injected to ethanol-naive chow fed mice immediately before testing. Measurements were then made for 60 minutes for the ataxia study, and for 30 minutes in the case of the locomotor activity.
At 8 and 12 hours from ethanol withdrawal, the susceptibility to sound-induced convulsions was measured in separate groups of ten mice. Mice were tested individually in a sound-proof perspex box 30 × 30 × 30 cm containing an electric door-bell. The bell was rung for 2 minutes or until the first signs of convulsions. The number of mice which responded by wild-running and clonic convulsions was counted. The mice were humanely killed as soon as a full convulsion was seen.
The results of the handling response ratings were compared by nonparametric two-way analysis of variance, designed for repeat measures on the same animal. The results of the area under the curve calculations were compared by the Mann-Whitney U-test. The convulsion incidence was analyzed by Fisher's exact probability test. The measurements from the elevated plus maze were subjected to one-way analysis of variance, followed by a Bonuferroni multiple comparison test, comparing all groups to the control group which received saline injections, and also both ethanol treated groups which received gabapentin to the ethanol treated group which received saline. The ataxia measurements were analyzed by the Mann-Whitney U-test and the locomotor activity by Student's t-test.

Experiment [1] relates to Abdominal Response Induced by Rectal Distension. Put plainly: Abdominal response induced by rectal distension in rats (electromyography). Type of experiment: in vivo, Male Wistar rats. From the text: (§1) The GABA analogs also have been evaluated for their ability to control and treat gastrointestinal disorders characterized as IBD and IBS. The assay utilized to evaluate the GABA analogs measures the effects of compound on lipopolysaccharide-induced delayed rectal allodynia in rats. Intraperitoneal (IP) injections of the endotoxin lipopolysaccharide (LPS) are known to induce long-lasting hyperalgesia in somatic pain models. The following assay was designed to evaluate the effect of IP injections of LPS on pain visceral threshold in an experimental model of rectal distension.
(§2) Male Wistar rats weighing 250 to 350 g were surgically prepared for electromyography, according to a previously described technique. Rats were anesthetized by i.p. injection of acepromazine and ketamine (Imalgene 1000, Rhöne-Mérieux, Lyon, France) at doses of 0.6 and 120 mg/kg, respectively. […] Electrodes were exteriorized on the back of the neck and protected by a glass tube attached to the skin. Animals were individually housed in polypropylene cages and kept in a temperature-controlled room (21°C). They were allowed free access to water and food (UAR pellets, Epinay, France).
(§3) Electromyographic recording began 5 days after surgery. The electrical activity of abdominal striated muscles was recorded with an electroencephalograph machine (Mini VIII, Alvar, Paris, France) using a short-time constant (0.03 sec) to remove low-frequency signals (<3 Hz) and a paper speed of 3.6 cm/minute.
(§4) Rats were placed in plastic tunnels (6 cm diameter; 25 cm length) where they could not move, escape or turn around, in order to prevent damage to the balloon. They are accustomized to this procedure for 3 or 4 days before rectal distension (RD) in order to minimize stress reaction during experiments. […] The balloon used for distension was an arterial embolectomy catheter (Fogarty, Edwards Laboratories, Inc., Santa Ana, USA). RD was performed by insertion of the balloon (2-mm diameter; 2-cm long) in the rectum, at 1 cm of the anus, the catheter being fixed at the tail. It was inflated progressively by step of 0.4 mL, from 0 to 1.6 mL, each step of inflation lasting 5 minutes. To detect possible leakage, the volume of water introduced in the balloon was checked by complete removal with a syringe at the end of the distension period.
In a first series of experiments, a group of 89 rats were submitted to gradual rectal distention. The animals were previously (30 minutes) treated by gabapentin at doses of 30 and 100 mg/kg IP or its vehicle ([…]).
(§5) Statistical analysis of the number of abdominal contractions occurring during each 5-minute period during RD was performed by one-way ANOVA followed by Student's paired t-test. Values were expressed as the mean ± SEM, and differences were considered significant for p <0.05.

For experiment [2], the system named is LPS-Induced Delayed (12 Hours) Allodynia. Put plainly: LPS-induced delayed (12 hours) rectal allodynia in rats. Type of experiment: in vivo, Male Wistar rats.
Text: as §1, §2, §3, §4
In a second series of experiments, the same group of 8 rats received IP lipopolysaccharide (E Coil, serotype 0111:B4) or its vehicle, at a dose of 1 mg/kg IP, 1 hour after a control rectal distension. […]
as §5

Turning to `NCC1(CC(=O)O)CCCCC1` [Gabapentin, 1-(aminomethyl)-cyclohexane acetic acid], the “Percentage of Group Showing Clonic Convulsions” value with Audiogenic Convulsions (Gabapentin 5 mg/kg i.p. 2 hours before test) was 92%; in the experiment with Audiogenic Convulsions (Gabapentin 20 mg/kg i.p.), 70%; with Audiogenic Convulsions (Gabapentin 50 mg/kg i.p.), 40%; in the experiment on Audiogenic Convulsions (Gabapentin 100 mg/kg i.p.), 30 p <0.01 c.f Ethanol/Saline group %. The “convulsion incidence after the audiogenic stimulus” value in the experiment with Audiogenic Convulsions (any of the doses tested, 12 hours from the end of the ethanol treatment (data not shown)) was “No effect”. The “Number of abdominal contractions/5 minutes” value in experiment [1] (Gabapentin 30 mg/kg IP 30 min before, volume of distension 0.4mL, vehicle 4.4 ± 1.6, mean ± SEM) was 5.0 ± 2.1 abdominal contractions/5 minutes; in experiment [1] (Gabapentin 30 mg/kg IP, volume of distension 0.8 mL, vehicle 19.1 ± 2.8, p <0.01), 10.6 ± 3.4 abdominal contractions/5 minutes; in experiment [1] (Gabapentin 30 mg/kg IP, volume of distension 1.2 mL, vehicle 23.4 ± 2.6, p <0.05), 16.1 ± 2.3 abdominal contractions/5 minutes; in experiment [1] (Gabapentin 100 mg/kg IP, volume of distension 0.4mL, vehicle 3.9 ± 1.8), 2.0 ± 1.4 abdominal contractions/5 minutes; in experiment [1] (Gabapentin 100 mg/kg IP, volume of distension 0.8 mL, vehicle 19.6 ± 2.3, p <0.01), 7.6 ± 3.4 abdominal contractions/5 minutes; in experiment [1] (Gabapentin 100 mg/kg IP, volume of distension 1.2 mL, vehicle 19.1 ± 2.3) it was 16.7 ± 2.9 abdominal contractions/5 minutes. The “Number of abdominal contractions/5 minutes” value in experiment [2] (LPS (1 mg/kg) + Gabapentin (3.0 mg/kg (so in the source)) IP 30 min before distension, 12 hours after LPS, 0.4 mL, LPS + vehicle 9.7 ± 1.0, p <0.001) is listed as 0.7 ± 0.5 abdominal contractions/5 minutes; in experiment [2] (LPS (1 mg/kg) + Gabapentin (3.0 mg/kg (so in the source)) IP, 0.8 mL, LPS + vehicle 11.7 ± 1.2), 11.9 ± 0.8 abdominal contractions/5 minutes; in experiment [2] (LPS (1 mg/kg) + Gabapentin (3.0 mg/kg (so in the source)) IP, 1.2 mL, LPS + vehicle 23.5 ± 2.2) it was 16.3 ± 3.2 abdominal contractions/5 minutes. The “% of reduction vs vehicle” value was -45% in experiment [1] (Gabapentin 30 mg/kg IP, volume of distension 0.8 mL); -31.2% in experiment [1] (Gabapentin 30 mg/kg IP, volume of distension 1.2 mL); -61.2% in experiment [1] (Gabapentin 100 mg/kg IP, volume of distension 0.8 mL). In addition, the “% of reduction vs "LPS/vehicle"” value in experiment [2] (LPS (1 mg/kg) + Gabapentin (3.0 mg/kg (so in the source)) IP, 0.4 mL) is on record as -92.8%.
